Measured values: paper PMC12521615, “Accurate affinity models for SH2 domains from peptide binding assays and free‐energy regression” (Protein Science : A Publication of the Protein Society, 2025)
Non-standard residues stand in square brackets, D forms with d. Residues, ends and D or L forms follow the SMILES beside them. pY = N[C@@H](Cc1ccc(OP(=O)(O)O)cc1)C(=O)O

Assays:
Grb2 SH2 domain = Grb2 SH2 domain (Homo sapiens, UniProt P62993); assay: biochemical
Description: Measured binding constants (K D) from competition mode fluorescence polarization experiments were obtained using the purified SH2 domains used for the selection and chosen sets of peptides with a phosphorylated tyrosine exactly as described previously (Li et al., [2023]). […] (c‐Src SH2 consensus) was used as the probe, and for the Grb2 SH2 domain, the fluorescently labeled peptide FITC‐Ahx‐FDDPS(pY)VNVQN (Ahx = 6‐aminohexanoic acid) from the Y177 phospho‐tyrosine site of BCR. Before performing the competition mode fluorescence polarization measurement, the K D of the probes for the respective SH2 domains was first measured in a direct mode of fluorescence polarization. […] For the set of peptides where single point mutations were compared, phosphopeptides reported in the PhosphoSitePlus database (Hornbeck et al., [2015]) and previously shown to bind to the c‐Src SH2 domain (Li et al., [2023]) were chosen alongside their respective single point mutants. To choose phosphopeptides for validation of the Lyn SH2 domain, we started from all verified phosphopeptides found in PhosphoSitePlus, filtered based on their co‐expression with the Lyn kinase using the STRING database. Using the validation data for the Fyn SH2 domain, the range of predicted relative binding affinities that corresponds to the range between 1 nM and 100 μM, which is the dynamic range of reliable measurement of absolute binding affinities using our competitive fluorescence polarization setup, was defined and used to further filter the set of candidate phosphopeptides. A subset that evenly covers the chosen range of predicted relative affinities was finally picked for the validation measurements of the Lyn SH2 domain. For the c‐Src, Yes, and Blk SH2 domains, a combination of the previously chosen peptides was used, after verifying that their predicted relative affinities for the given SH2 domain fell within the same measurable range. All peptides containing phosphorylated tyrosine, both fluorescently labeled and non‐labeled, were produced by SynPeptide (China).

Lyn SH2 domain = biological target: T1, Lyn SH2 domain (Homo sapiens, UniProt P07948); assay: competitive fluorescence polarization, Lyn SH2 domain; type: binding; details: Table S3, unpaired validation; competition fluorescence polarization; probe FITC-Ahx-GDG-pY-EEISPLLL-NH2 30 nM; [SH2] 106 nM; mean
T1 construct: The human SH2 domains from Fyn (142–248), Lyn (121–228); His6-SUMO (N, cleaved yes); host or cells: Escherichia coli C43(DE3) with BirA helper plasmid
T1 sequence (P07948 121-228): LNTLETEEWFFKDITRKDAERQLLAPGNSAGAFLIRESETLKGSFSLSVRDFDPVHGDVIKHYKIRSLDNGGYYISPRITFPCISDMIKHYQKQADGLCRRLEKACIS
Description: First, we generated bacterial display datasets and affinity models for three additional SH2 domains from Src‐family kinases Lyn, Blk, and Yes (Figure 5a). For validation of the affinity model for Lyn, we selected a subset of phosphopeptides that were likely to fall within the dynamic range of the competitive fluorescence polarization assay (see “Methods” for details). […] We measured binding affinities to the corresponding phosphopeptides by fluorescence polarization.
The human SH2 domains from Fyn (142–248), Lyn (121–228), Blk (116–222), and Yes (150–257) kinases were PCR‐amplified from plasmids encoding the full‐length proteins and cloned using the NEBuilder® HiFi DNA Assembly Master Mix (NEB) in a pET plasmid backbone that was PCR‐amplified with the primers pETXbaI_for and pETXhoI_rev (these and all other primers are defined in Table S7) from the pET‐His6‐SUMO‐Grb2(SH2), as reported before (Li et al., [2023]), thus adding an N‐terminal His6‐SUMO tag and a C‐terminal AviTag® for biotinylation. The SH2 plasmids are available via Addgene: pET28‐His6‐SUMO‐Fyn‐SH2‐AviTag (214202), pET28‐His6‐SUMO‐Blk‐SH2‐AviTag (214204), pET28‐His6‐SUMO‐Lyn‐SH2‐AviTag (214207), pET28‐His6‐SUMO‐Yes‐SH2‐AviTag (214208), and pET28‐His6‐SUMO‐cSrc‐SH2‐AviTag (214230). For expression and parallel biotinylating of the SH2 domain product, Escherichia coli C43(DE3) cells carrying a BirA encoding helper plasmid were transformed with the respective SH2 domain expression construct and plated to grow overnight at 37°C on a streptomycin and kanamycin (100 μg/mL both) LB‐agar plate. The colonies were collected in 10 mL of TB medium and used to inoculate 1 L of TB medium and grown at 37°C and 215 rpm. Upon reaching an OD600 of 0.5, the expression of the SH2 domains was induced by adding IPTG up to 0.5 mM and biotin up to 250 μM, and the expressing culture was incubated at 18°C for 16–18 h. After removing the medium through centrifugation, the cell pellets were snap‐frozen in liquid N2 and stored at −80°C until purification. To purify the biotinylated SH2 domains, the cell pellets were resuspended in lysis buffer (50 mM Tris, pH 7.5, 300 mM NaCl, 20 mM imidazole, 10% glycerol), supplementing them with 2 mM β‐mercaptoethanol and 1× protease inhibitor cocktail before lysis by sonication (Fisherbrand Sonic Dismembrator). The soluble fraction separated after centrifugation at 33,000 g was run on a HisTrap HP column (Cytiva), then washed with 10 CV of the lysis buffer followed by 10 CV of wash buffer (50 mM Tris, pH 7.5, 50 mM NaCl, 10 mM imidazole, 10% glycerol). Next, the protein was eluted with elution buffer (50 mM Tris, pH 7.5, 50 mM NaCl, 250 mM imidazole, 10% glycerol) directly onto a 5 mL HiTrap Q HP anion exchange column (Cytiva). The biotinylated SH2 domain was then eluted from the anion exchange column with an NaCl gradient (50 mM Tris, pH 7.5, 0.05–1 M NaCl, 1 mM TCEP‐HCl), and the His6‐SUMO tag was cleaved using 0.05 mg/mL Ulp1 protease. The biotinylated SH2 domain was then collected in a flowthrough after running the cleavage reaction over a HisTrap HP column. Finally, the biotinylated SH2 domain in the flowthrough was run on a HiLoad 16/600 Superdex 75 pg size exclusion column (Cytiva) in storage buffer (20 mM HEPES, pH 7.5, 150 mM NaCl, 10% glycerol).

c-Src SH2 domain = biological target: T2, c-Src SH2 domain (Homo sapiens, UniProt P12931); assay: competitive fluorescence polarization, c-Src SH2 domain; type: binding; details: Table S3, unpaired validation; competition fluorescence polarization; probe FITC-Ahx-GDG-pY-EEISPLLL-NH2 30 nM; [SH2] 123-126 nM; mean
T2 construct: the SH2 domain from c‐Src kinase; His6-SUMO (N, cleaved yes); host or cells: Escherichia coli C43(DE3) with BirA helper plasmid
T2 sequence (P12931 151-248 limits assumed): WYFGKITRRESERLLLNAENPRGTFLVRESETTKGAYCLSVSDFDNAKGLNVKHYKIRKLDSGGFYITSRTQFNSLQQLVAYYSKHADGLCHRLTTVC
Description: Measured binding constants (K D) from competition mode fluorescence polarization experiments were obtained using the purified SH2 domains used for the selection and chosen sets of peptides with a phosphorylated tyrosine exactly as described previously (Li et al., [2023]). […] Before performing the competition mode fluorescence polarization measurement, the K D of the probes for the respective SH2 domains was first measured in a direct mode of fluorescence polarization. […] Using the validation data for the Fyn SH2 domain, the range of predicted relative binding affinities that corresponds to the range between 1 nM and 100 μM, which is the dynamic range of reliable measurement of absolute binding affinities using our competitive fluorescence polarization setup, was defined and used to further filter the set of candidate phosphopeptides. A subset that evenly covers the chosen range of predicted relative affinities was finally picked for the validation measurements of the Lyn SH2 domain.

Chain of Grb2 SH2 domain (P62993 60-152 limits assumed): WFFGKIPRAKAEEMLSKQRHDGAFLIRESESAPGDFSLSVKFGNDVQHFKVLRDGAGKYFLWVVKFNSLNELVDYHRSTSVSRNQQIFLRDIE

Row | SMILES | Kd (Grb2 SH2 domain) [nM] | Kd (Lyn SH2 domain) [nM] | Kd (c-Src SH2 domain) [nM]
1 | CC[C@H](C)[C@H](NC(=O)[C@H](CC(N)=O)NC(=O)[C@H](Cc1c[nH]cn1)NC(=O)[C@H](Cc1ccc(OP(=O)(O)O)cc1)NC(=O)[C@H](CCCNC(=N)N)NC(=O)[C@H](CCC(N)=O)NC(=O)[C@H](Cc1c[nH]cn1)NC(=O)CNC(=O)[C@H](CC(C)C)NC(=O)[C@H](CCC(N)=O)NC(C)=O)C(=O)N[C@H](C(=O)N1CCC[C@H]1C(=O)NCC(N)=O)[C@@H](C)O [Syn-G2-5] (Ac-QLGHQR[pY]HNITPG-NH2) | 487 |  | 
2 | CC[C@H](C)[C@H](NC(=O)[C@H](CC(N)=O)NC(=O)[C@H](Cc1c[nH]cn1)NC(=O)[C@H](CCC(N)=O)NC(C)=O)C(=O)N[C@@H](Cc1c[nH]cn1)C(=O)N[C@@H](CO)C(=O)N[C@@H](Cc1ccc(OP(=O)(O)O)cc1)C(=O)N[C@H](C(=O)N[C@@H](CC(N)=O)C(=O)N[C@H](C(=O)N1CCC[C@H]1C(=O)N1CCC[C@H]1C(=O)NCC(N)=O)[C@@H](C)CC)[C@@H](C)CC [Syn-G2-2] (Ac-QHNIHS[pY]INIPPG-NH2) | 3.99 |  | 
3 | CC(=O)N[C@@H](CCC(N)=O)C(=O)N[C@@H](Cc1c[nH]cn1)C(=O)N[C@@H](CCCCN)C(=O)N[C@@H](CCC(=O)O)C(=O)N[C@@H](CC(=O)O)C(=O)N[C@H](C(=O)N[C@@H](Cc1ccc(OP(=O)(O)O)cc1)C(=O)N[C@@H](CCC(=O)O)C(=O)N[C@@H](CC(N)=O)C(=O)N[C@@H](CC(C)C)C(=O)N[C@@H](Cc1c[nH]cn1)C(=O)N[C@H](C(=O)NCC(N)=O)[C@@H](C)O)C(C)C [PTPN6 pY564] (Ac-QHKEDV[pY]ENLHTG-NH2) |  | 943 | 909
4 | CC(=O)N[C@@H](CCC(N)=O)C(=O)NCC(=O)N[C@@H](CCCNC(=N)N)C(=O)N[C@@H](CCCNC(=N)N)C(=O)N[C@@H](CCC(=O)O)C(=O)N[C@@H](CCC(=O)O)C(=O)N[C@@H](Cc1ccc(OP(=O)(O)O)cc1)C(=O)N[C@@H](CC(=O)O)C(=O)N[C@H](C(=O)N[C@@H](CC(C)C)C(=O)N[C@@H](CC(=O)O)C(=O)N[C@@H](CCCCN)C(=O)NCC(N)=O)C(C)C [CD3Z pY83] (Ac-QGRREE[pY]DVLDKG-NH2) |  | 2950 | 
5 | CC[C@H](C)[C@H](NC(=O)[C@H](CC(=O)O)NC(=O)[C@H](CCC(N)=O)NC(C)=O)C(=O)N[C@@H](CC(N)=O)C(=O)N[C@@H](CO)C(=O)N[C@@H](CC(C)C)C(=O)N[C@@H](Cc1ccc(OP(=O)(O)O)cc1)C(=O)N[C@@H](CC(=O)O)C(=O)N[C@H](C(=O)N[C@@H](CO)C(=O)N[C@@H](CCCNC(=N)N)C(=O)N[C@@H](CCSC)C(=O)NCC(N)=O)C(C)C [PLCG2 pY 753] (Ac-QDINSL[pY]DVSRMG-NH2) |  | 11700 | 12300
6 | CC[C@H](C)[C@H](NC(=O)[C@H](CC(=O)O)NC(=O)[C@H](CC(=O)O)NC(=O)[C@H](Cc1ccc(OP(=O)(O)O)cc1)NC(=O)[C@@H](NC(=O)[C@H](CCC(=O)O)NC(=O)CNC(=O)[C@H](CC(=O)O)NC(=O)[C@H](CC(N)=O)NC(=O)[C@H](CCC(N)=O)NC(C)=O)[C@@H](C)CC)C(=O)N[C@@H](C)C(=O)N[C@@H](CC(=O)O)C(=O)NCC(N)=O [SLAP-130 pY771] (Ac-QNDGEI[pY]DDIADG-NH2) |  | 96.8 | 94
7 | CC[C@H](C)[C@H](NC(=O)[C@H](CC(N)=O)NC(=O)[C@H](CCCCN)NC(=O)[C@H](Cc1ccc(OP(=O)(O)O)cc1)NC(=O)[C@H](CC(=O)O)NC(=O)[C@@H](NC(=O)CNC(=O)CNC(=O)[C@H](CCC(=O)O)NC(=O)[C@H](CCC(N)=O)NC(C)=O)C(C)C)C(=O)N[C@@H](Cc1c[nH]cn1)C(=O)N[C@@H](CC(C)C)C(=O)NCC(N)=O [CSF1R pY699] (Ac-QEGGVD[pY]KNIHLG-NH2) |  | 22800 | 
8 | CC(=O)N[C@@H](CCC(N)=O)C(=O)N[C@@H](CCC(=O)O)C(=O)N[C@@H](Cc1c[nH]c2ccccc12)C(=O)N[C@@H](CCCNC(=N)N)C(=O)N[C@@H](CO)C(=O)N[C@@H](CCC(N)=O)C(=O)N[C@@H](Cc1ccc(OP(=O)(O)O)cc1)C(=O)N[C@@H](CCC(=O)O)C(=O)N[C@@H](C)C(=O)N[C@@H](CC(C)C)C(=O)N[C@@H](CCCCN)C(=O)N[C@@H](CCC(=O)O)C(=O)NCC(N)=O [TRAF3IP3 pY322] (Ac-QEWRSQ[pY]EALKEG-NH2) |  | 3940 | 6480
9 | CC[C@H](C)[C@H](NC(=O)[C@H](CCC(=O)O)NC(=O)[C@H](CC(=O)O)NC(=O)[C@H](Cc1ccc(OP(=O)(O)O)cc1)NC(=O)[C@@H](NC(=O)[C@H](CCCNC(=N)N)NC(=O)[C@H](CO)NC(=O)[C@H](CCC(=O)O)NC(=O)[C@H](C)NC(=O)[C@H](CCC(N)=O)NC(C)=O)[C@@H](C)CC)C(=O)N[C@@H](CC(C)C)C(=O)N[C@@H](CCC(N)=O)C(=O)NCC(N)=O [CD84 pY296] (Ac-QAESRI[pY]DEILQG-NH2) |  | 91 | 28.1
10 | CC[C@H](C)[C@H](NC(=O)[C@H](CCC(=O)O)NC(=O)[C@H](CO)NC(=O)[C@H](Cc1ccc(OP(=O)(O)O)cc1)NC(=O)[C@H](CCC(=O)O)NC(=O)[C@@H](NC(=O)[C@@H](NC(=O)[C@H](CO)NC(=O)[C@@H]1CCCN1C(=O)[C@H](CCC(N)=O)NC(C)=O)[C@@H](C)O)[C@@H](C)O)C(=O)N[C@@H](CCCCN)C(=O)N[C@H](C(=O)NCC(N)=O)[C@@H](C)O [SIGLEC5 pY544] (Ac-QPSTTE[pY]SEIKTG-NH2) |  | 362 | 282
11 | CC(=O)N[C@@H](CCC(N)=O)C(=O)N[C@@H](CC(=O)O)C(=O)N[C@@H](CC(=O)O)C(=O)N[C@@H](CCC(N)=O)C(=O)N[C@@H](CCC(=O)O)C(=O)N[C@H](C(=O)N[C@@H](Cc1ccc(OP(=O)(O)O)cc1)C(=O)N[C@@H](CC(=O)O)C(=O)N[C@@H](CC(=O)O)C(=O)N[C@H](C(=O)N[C@@H](C)C(=O)N[C@@H](CCC(=O)O)C(=O)NCC(N)=O)C(C)C)C(C)C [SLAP-130 pY595] (Ac-QDDQEV[pY]DDVAEG-NH2) |  | 240 | 191
